Results as given in US20190240225A1, “COMBINATION OF A BCL-2 INHIBITOR AND A MCL-1 INHIBITOR, USES AND PHARMACEUTICAL COMPOSITIONS THEREOF” (LES LABORATOIRES SERVIER, priority 2016, published 2019).

Tests used:
Assay in all cases: MTT cell viability assay, myeloma cell line
Type in all cases: cell-based, human
[1] = system: AMO1; conditions: Homo sapiens, single agent, read-out: IC50
Description: (§1) Cell lines: Human myeloma cell lines (HMCLs) were derived from primary myeloma cells cultured in RPMI 1640 medium supplemented with 5% fetal calf serum from and 3 ng/mL recombinant IL-6 for IL-6 dependent cell lines. HMCLs are representative of phenotypic and genomic heterogeneity and the variability in patient's response to therapy.
(§2) MTT assay: Cell viability is measured using MTT (3-(4,5-dimethylthiazol-2-yl)-2,5-diphenyltetrazolium bromide) colorimetric survival assay. Cells are incubated with compounds in 96-well plates containing a final volume of 100 μl/well time. (2R)-2-{[(5Sa)-5-{3-chloro-2-methyl-4-[2-(4-methylpiperazin-1-yl)ethoxy]phenyl}-6-(5-fluorofuran-2-yl)thieno[2,3-d]pyrimidin-4-yl]oxy}-3-(2-{[1-(2,2,2-trifluoroethyl)-1H-pyrazol-5-yl]methoxy}phenyl)propanoic acid (Compound 2) is used at 9 different concentrations accordingly to single agent sensitivity. N-(4-hydroxyphenyl)-3-{6-[((3S)-3-(4-morpholinylmethyl)-3,4-dihydro-2(1H)-isoquinolinyl)carbonyl]-1,3-benzodioxol-5-yl}-N-phenyl-5,6,7,8-tetrahydro-1-indolizine carboxamide hydrochloride (Compound 1, HCl) is used at a fixed dose—1 μM. At the end of each treatment, cells are incubated with 1 mg/mL MTT (50 μl MTT solution 2.5 mg/ml for each well) at 37° C. for 3 hours allowing the MTT to be metabolized. Lysis buffer (100 μl Lysis buffer: DMF (2:3)/SDS (1:3)) is added into each well to dissolve formazan cristals and after 18 h of incubation, absorbance in viable cells is measured at 570 nm using a spectrophotometer.
(§3) The sensitivity of 27 human multiple myeloma cell lines to Compound 1, Compound 2 or to Compound 2 in the presence of 1 μM of Compound 1 was analyzed by using MTT cell viability assay. 50% inhibitory concentrations (IC50, in nM) were determined.

[2] = system: ANBL6; conditions: Homo sapiens, ANBL-6, single agent, read-out: IC50
Description: as §1, §2, §3

[3] = system: BCN; conditions: Homo sapiens, single agent, read-out: IC50
Description: as §1, §2, §3

[4] = system: KMM1; conditions: Homo sapiens, KMM-1, single agent, read-out: IC50
Description: as §1, §2, §3

[5] = system: KMS11; conditions: Homo sapiens, KMS-11, single agent, read-out: IC50
Description: as §1, §2, §3

[6] = system: KMS12BM; conditions: Homo sapiens, KMS-12-BM, single agent, read-out: IC50
Description: as §1, §2, §3

[7] = system: LP1; conditions: Homo sapiens, LP-1, single agent, read-out: IC50
Description: as §1, §2, §3

[8] = system: MM1S; conditions: Homo sapiens, MM1.S, single agent, read-out: IC50
Description: as §1, §2, §3

[9] = system: NAN1; conditions: Homo sapiens, single agent, read-out: IC50
Description: as §1, §2, §3

[10] = system: NAN3; conditions: Homo sapiens, single agent
Description: as §1, §2, §3

[11] = system: NAN6; conditions: Homo sapiens, single agent, read-out: IC50
Description: as §1, §2, §3

[12] = system: NAN8; conditions: Homo sapiens, single agent, read-out: IC50
Description: as §1, §2, §3

[13] = system: NAN9; conditions: Homo sapiens, single agent, read-out: IC50
Description: as §1, §2, §3

[14] = system: RPMI8226; conditions: Homo sapiens, RPMI-8226, single agent, read-out: IC50
Description: as §1, §2, §3

[15] = system: SBN; conditions: Homo sapiens, single agent, read-out: IC50
Description: as §1, §2, §3

[16] = system: U266; conditions: Homo sapiens, U-266, single agent, read-out: IC50
Description: as §1, §2, §3

[17] = system: XG1; conditions: Homo sapiens, single agent, read-out: IC50
Description: as §1, §2, §3

[18] = system: XG2; conditions: Homo sapiens, single agent, read-out: IC50
Description: as §1, §2, §3

[19] = system: XG3; conditions: Homo sapiens, single agent, read-out: IC50
Description: as §1, §2, §3

[20] = system: XG7; conditions: Homo sapiens, single agent, read-out: IC50
Description: as §1, §2, §3

Cl.O=C(c1cc(-c2cc3c(cc2C(=O)N2Cc4ccccc4C[C@H]2CN2CCOCC2)OCO3)n2c1CCCC2)N(c1ccccc1)c1ccc(O)cc1 [Compound 1, HCl, N-(4-hydroxyphenyl)-3-{6-[((3S)-3-(4-morpholinylmethyl)-3,4-dihydro-2(1H)-isoquinolinyl)carbonyl]-1,3-benzodioxol-5-yl}-N-phenyl-5,6,7,8-tetrahydro-1-indolizine carboxamide hydrochloride]
IC50 [1]: 8.61 µM
IC50 [2]: 1900 nM
IC50 [3]: 22.2 µM
IC50 [4]: 23.9 µM
IC50 [5]: 10.5 µM
IC50 [6]: 1390 nM
IC50 [7]: 9.77 µM
IC50 [8]: 21.4 µM
IC50 [9]: 6.66 µM
IC50 [10]: 8.24 µM
IC50 [11]: 4.07 µM
IC50 [12]: 9.1 µM
IC50 [13]: 23.2 µM
IC50 [14]: 3.2 µM
IC50 [15]: 21.3 µM
IC50 [16]: > 30 µM
IC50 [17]: 9.78 µM
IC50 [18]: 15.3 µM
IC50 [19]: 7.22 µM
IC50 [20]: 18.1 µM
